Test results published in patent US7365211B2, “Heterocyclic GABAA subtype selective receptor modulators” (Roche Palo Alto LLC, priority 2003, dated 2008).
Values joined by “and” are separate entries in the source; they are usually repeats but may differ in a detail not shown here. Equal entries are not always repeated. Structures can show the parent of a compound that is named as a salt.

Experiments:
[1] = biological target: T1, GABAA α2β3γ2 (Homo sapiens, UniProt P18507+P28472+P47869); experiment: 35S-TBPS binding assay (competition), HEK293 membranes with GABAA α2β3γ2 construct; conditions: 35S-TBPS (5 nM) competition, GABA 1 μM, 2 hours at room temperature, read-out: pIC50 α2β3γ2 (converted)
T1 construct: expressed in transfected cells; host or cells: HEK293
Procedure: (§1) The binding assay is based on the assay reported by K. Gee et al., Eur. J. Pharmacol. 1987 136:419-423.
(§2) Homogenate preparation: Membrane preparations of HEK293 cells containing either GABAA α1β2γ2 or GABAA α2β3γ2 constructs were performed according to a modified procedure previously described by Gee et al. (supra). Whole HEK 293 cells in D-PBS (calcium/magnesium free) buffer adjusted to pH 7.4 were centrifuged at 7,280×g for 20 m. After discarding the supernatant, the pellet was resuspended in the buffer and centrifuged at 1,820×g for 10 m. Afterwards, the supernatant was discarded and the pellet resuspended in ice-cold preparation buffer (50 mM Tris HCl pH 7.4, 4° C. and 150 mM KCl), homogenized for 30 sec using a Brinkmann Polytron PT3000 (setting 6) and centrifuged at 48,000×g for 30 m at 4° C. The centrifugation and homogenization procedure was repeated two more times for a total of 3 times before resuspending the membranes at a final protein concentration of 0.5 mg/mL. Aliquots (30 mL) of the final membrane preparation were then centrifuged at 48,000×g for 30 m, and the resulting pellets were stored at −80° C. until required.
(§3) 35S-TBPS binding assay. Membrane pellets containing either GABAA α1β2γ2 or GABAA α2β3γ2 constructs were thawed on ice, resuspended in 10 mL of 50 mM Tris HCl pH 7.4, 4° C. and 150 mM KCl and centrifuged at 48,000×g, 30 m at 4° C. After discarding the supernatant, the pellet was resuspended in 30 mL incubation buffer (50 mM Tris HCl pH 7.4, 25° C. and 150 mM KCl) at approximately 0.5 mg/mL protein concentration. In ^35S-TBPS competition studies, HEK293 membranes were incubated with ^35S-TBPS (5 nM final) and GABA (1 μM) in the absence or presence of competitor at concentrations ranging from 0.01 nM to 10 μM in 125 μL incubation buffer for 2 hours at room temperature (˜22° C.). Non-specific binding was assayed with picrotoxin (100 μM final concentration). […] Measurement of bound radioactivity was performed using a Packard Microplate 96 well topcount scintillation counter. […]

[2] = biological target: T2, GABAA α1β2γ2 (Homo sapiens, UniProt P14867+P18507+P47870); experiment: 35S-TBPS binding assay (competition), HEK293 membranes with GABAA α1β2γ2 construct; conditions: 35S-TBPS (5 nM) competition, GABA 1 μM, 2 hours at room temperature, read-out: pIC50 α1β2γ2 (converted)
T2 construct: expressed in transfected cells; host or cells: HEK293
Procedure: as §1, §2, §3

| melting point | IC50 [1] [µM] | IC50 [2] [µM] | Compound |
| --- | --- | --- | --- |
| 133 to 147 °C |  |  | Cl.Cn1cc2cccc(-c3ccc(Cl)cc3Cl)c2n1 |
| 148 to 150 °C |  |  | CC/C=C(\CCC)c1c2cccc(-c3ccc(Cl)cc3Cl)c2nn1C.Cl |
| 190.9 to 195.5 °C |  |  | Cl.Cn1cc2ccnc(-c3ccc(Cl)cc3Cl)c2n1 |
| 139 to 140 °C |  |  | CCCN(CCC)c1c2cccc(-c3ccc(Cl)cc3Cl)c2nn1C.Cl |
| 166 to 167 °C |  |  | COc1ccc(-c2cccc3c(N(C)C)n(C)nc23)c(C)c1.Cl |
| 211.1 to 213 °C |  |  | CNCc1c2cccc(-c3ccc(Cl)cc3Cl)c2nn1C.Cl |
| 169.9 to 171.9 °C |  |  | Cc1cc(C)c(-c2cccc3c(N(C)C)n(C)nc23)c(C)c1.Cl |
| 146.2 to 147.8 °C |  |  | CC(=O)N(C)Cc1c2cccc(-c3ccc(Cl)cc3Cl)c2nn1C.Cl |
| 172.5 to 176 °C |  |  | Cl.Cn1nc2c(-c3ccc(Cl)cc3Cl)cccc2c1CNN |
| 146.3 to 148.6 °C |  |  | COC(=O)NCc1c2cccc(-c3ccc(Cl)cc3Cl)c2nn1C.Cl |
| 184 to 185.5 °C |  |  | Cn1nc2c(-c3ccc(Cl)cc3Cl)cccc2c1COC(N)=O |
| 180 to 182 °C |  |  | Cc1cc(C)c(-c2cccc3cn(C)nc23)c(C)c1 [A5, 2-Methyl-7-(2,4,6-trimethyl-phenyl)-2H-indazole] |
| 101 to 105 °C |  |  | Cc1cc(C#N)ccc1-c1cccc2cn(C)nc12 [A6, 3-Methyl-4-(2-methyl-2H-indazol-7-yl)-benzonitrile] |
|  | 0.0309 | 0.295 | Cc1c2cccc(-c3ccc(Cl)cc3Cl)c2nn1C [A14, 7-(2,4-Dichloro-phenyl)-2,3-dimethyl-2H-indazole; hydrochloride] |
|  | 0.0263 | 1.17 | C=Cc1c2cccc(-c3ccc(Cl)cc3Cl)c2nn1C [A17, 7-(2,4-Dichloro-phenyl)-2-methyl-3-vinyl-2H-indazole] |
| 84.9 to 95.4 °C and 85 to 95 °C |  |  | C=Cc1c2cccc(-c3c(C)cc(C)cc3C)c2nn1C [A18, 2-Methyl-7-(2,4,6-trimethyl-phenyl)-3-vinyl-2H-indazole] |
| 129.9 to 130.9 °C |  |  | C#Cc1c2cccc(-c3ccc(Cl)cc3Cl)c2nn1C [A20, 7-(2,4-Dichloro-phenyl)-3-ethynyl-2-methyl-2H-indazole] |
| 159.2 to 160.5 °C |  |  | CO/N=C\c1c2cccc(-c3ccc(Cl)cc3Cl)c2nn1C [A22, 7-(2,4-Dichloro-phenyl)-2-methyl-2H-indazole-3-carbaldehyde O-methyl-oxime] |

| melting point | IC50 [1] [µM] | IC50 [2] [µM] | Compound |
| --- | --- | --- | --- |
| 137 to 139 °C | 0.0135 | 0.575 | Cn1nc2c(-c3ccc(Cl)cc3Cl)cccc2c1Br [A27, 3-Bromo-7-(2,4-dichloro-phenyl)-2-methyl-2H-indazole] |
| 137 to 139 °C |  |  | Cn1nc2c(-c3ccc(Cl)cc3Cl)cccc2c1C#N [A29, 7-(2,4-Dichloro-phenyl)-2-methyl-2H-indazole-3-carbonitrile] |
| 154.5 to 156.2 °C |  |  | Cn1nc2c(-c3ncc(Cl)cc3Cl)cccc2c1Br [A32, 3-Bromo-7-(3,5-dichloro-pyridin-2-yl)-2-methyl-2H-indazole] |
| 153.9 to 155.3 °C |  |  | Cn1cc2cncc(-c3ccc(Cl)cc3Cl)c2n1 [A34, 7-(2,4-Dichloro-phenyl)-2-methyl-2H-pyrazolo[4,3-c]pyridine] |
| 160.5 to 162.8 °C |  |  | Cn1cc2nccc(-c3ccc(Cl)cc3Cl)c2n1 [A35, 7-(2,4-Dichloro-phenyl)-2-methyl-2H-pyrazolo[4,3-b]pyridine] |
| 98.8 to 104.5 °C |  |  | Cn1nc2c(-c3ccc(Cl)cc3Cl)cccc2c1CNC(=O)N1CCOCC1 [C11, Morpholine-4-carboxylic acid [7-(2,4-dichloro-phenyl)-2-methyl-2H-indazol-3-ylmethyl]-amide] |
| 101.9 to 105.1 °C |  |  | CN(C)C(=O)NCc1c2cccc(-c3ccc(Cl)cc3Cl)c2nn1C [C13, 3-[7-(2,4-Dichloro-phenyl)-2-methyl-2H-indazol-3-ylmethyl]-1,1-dimethyl-urea] |
| 123.3 to 126.3 °C |  |  | CN(C)C(=O)Nc1c2cccc(-c3ccc(Cl)cc3Cl)c2nn1C [C15, 3-[7-(2,4-Dichloro-phenyl)-2-methyl-2H-indazol-3-yl]-1,1-dimethyl-urea] |
| 170.7 to 173.6 °C |  |  | Cn1nc2c(-c3ccc(Cl)cc3Cl)cccc2c1S(N)(=O)=O [D3, 7-(2,4-Dichloro-phenyl)-2-methyl-2H-indazole-3-sulfonic acid amide] |
| 157.8 to 161.7 °C |  |  | Cn1nc2c(-c3ccc(Cl)cc3Cl)cccc2c1S(=O)(=O)CCO [D5, 2-[7-(2,4-Dichloro-phenyl)-2-methyl-2H-indazole-3-sulfonyl]-ethanol] |
| 171.3 to 173.2 °C |  |  | Cn1nc2c(-c3ccc(Cl)cc3Cl)cccc2c1NS(C)(=O)=O [D15, N-[7-(2,4-Dichloro-phenyl)-2-methyl-2H-indazol-3-yl]-methanesulfonamide] |
| 182.1 to 183.4 °C |  |  | Cn1nc2c(-c3ccc(Cl)cc3Cl)cccc2c1S(C)(=O)=O [D-2, 3-Methanesulfonyl-2-methyl-7-(2,4-dichloro-phenyl)-2H-indazole] |
| 246 to 247 °C |  |  | Cc1cc(C)c(-c2cccc3c(C(C)O)n(C)nc23)c(C)c1 (stereo not drawn) [E1, 1-[2-Methyl-7-(2,4,6-trimethyl-phenyl)-2H-indazol-3-yl]-ethanol] |
| 119 to 120.9 °C |  |  | COCc1c2cccc(-c3ccc(Cl)cc3Cl)c2nn1C [E3, 7-(2,4-Dichloro-phenyl)-3-methoxymethyl-2-methyl-2H-indazole] |
| 197.3 to 201.2 °C |  |  | Cn1nc2c(-c3ccc(Cl)cc3Cl)cccc2c1CO [E4] |
| 131.7 to 135.2 °C |  |  | CC(=O)OCc1c2cccc(-c3ccc(Cl)cc3Cl)c2nn1C [E5, Acetic acid [7-(2,4-dichloro-phenyl)-2-methyl-2H-indazol-3-yl]-methyl ester] |
| 125.2 to 128 °C |  |  | CN(C)C(=O)OCc1c2cccc(-c3ccc(Cl)cc3Cl)c2nn1C [E6, Dimethyl-carbamic acid 7-(2,4-dichloro-phenyl)-2-methyl-2H-indazol-3-ylmethyl ester] |
